Among the data in patent publication US12516038B2, “Inhibitors of antigen presentation by HLA-DR” (Janssen Pharmaceutica NV, priority 2020, dated 2026) are IC50 values, retold here.

The target in one test is HLA-DRB1*0401 (Homo sapiens (Human), UniProt P01903+P01911, A100K/A169T/DEL228-266/F76Y/I96L/K127E/L162R/M171V/N62H/P40V/Q125Y/R42H/S133A/S149N/S66Y/V115G/V209L/W38E). Description: HLA-DR4 HTRF assay. In kind it is binding. The settings on record: inhibition of loading of Alexa Fluor 647-labeled Cit-CII peptide onto HLA-DR4 (CLIP cleaved). The method, boiled down: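 HLA-DRB1*04:01 construct (α/β fused to human Fc, CLIP pre-cleaved by HRV3C overnight at 4° C) at 3 nM was preincubated 45 min with compound and 1 nM anti-Fc-Tb donor, then 40 nM Alexa647-Cit-CII1236-1249 peptide added. After 90 min at 37° C, the 665/620 nm HTRF ratio gave % inhibition; IC50 by nonlinear regression.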
(In TR-FRET formats the signal depends on donor and acceptor labels being close together.)

Test [1] deals with HLA-DR4 restricted mouse T cell hybridoma line (DR4.CII.36.8) with HLA-DRB1*04:01-expressing Boleth cells. As to the kind of experiment: HLA-DR4-restricted peptide-specific T cell-based assay (hybridoma assay). Particulars: Mus musculus, T-cell, 6 h, inhibition of IL-2 production, CII259-273 peptide presented by Boleth cells. The method, boiled down:
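Boleth cells (HLA-DRB1*04:01 B cell line) pre-incubated with compound 1 h at 37° C. in DMEM/1% FCS, then DR4.CII.36.8 mouse T cell hybridoma (CII259-273-specific) added for 6 h with CII259-273 peptide. Supernatant mouse IL-2 by AlphaLISA; IC50 by 4-PL fit of 8-point duplicate titrations.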

pIC50: −log10 of the molar value. Bounds are passed on as bounds.

The term pIC50 denotes −log10 of the IC50, conventionally taken in molar units. A lower pIC50 goes with a high IC50. As for `COc1c(O[C@H](c2ccncc2)c2ccc(C(N)=O)cc2)ccc2c1OCCC2=O` (single isomer, unassigned) [Example 100b, (*S)-4-(((8-methoxy-4-oxochroman-7-yl)oxy)(pyridin-4-yl)methyl)benzamide], the figures for the pIC50 (on HLA-DRB1*0401; in test [1]) were 5.05 and 5.64, respectively.
Regarding `N#Cc1cc(O[C@@H](c2ccncc2)c2ccc(C(N)=O)cc2)cc2c1C(=O)CCO2` (single isomer, unassigned) [Example 101a, (*R)-4-(((5-cyano-4-oxochroman-7-yl)oxy)(pyridin-4-yl)methyl)benzamide], the results for the pIC50 (on HLA-DRB1*0401; in test [1]) were 6.02 and below 4.82, respectively.
As to `N#Cc1cc(O[C@H](c2ccncc2)c2ccc(C(N)=O)cc2)cc2c1C(=O)CCO2` (single isomer, unassigned) [Example 101b, (*S)-4-(((5-cyano-4-oxochroman-7-yl)oxy)(pyridin-4-yl)methyl)benzamide], the figures for the pIC50 (against HLA-DRB1*0401; in test [1]) were 5.89 and 4.92, respectively.
Taken in the same sequence, the figures for `COc1ccc([C@@H](Oc2c(F)cc3c(c2C)OCCC3=O)c2ccncc2)cc1` (single isomer, unassigned) [Example 103a, (*R)-6-fluoro-7-((4-methoxyphenyl)(pyridin-4-yl)methoxy)-8-methylchroman-4-one] were 5.54 and 4.82.
In the case of `COc1ccc([C@H](Oc2c(F)cc3c(c2C)OCCC3=O)c2ccncc2)cc1` (single isomer, unassigned) [Example 103b, (*S)-6-fluoro-7-((4-methoxyphenyl)(pyridin-4-yl)methoxy)-8-methylchroman-4-one], the values for the pIC50 (on HLA-DRB1*0401; in test [1]) were 5.55 and 4.82, respectively.
Taken in the same sequence, the figures for `Cc1c(O[C@@H](c2ccncc2)c2ccc(S(C)(=O)=O)cc2)c(F)cc2c1OCCC2=O` (single isomer, unassigned) [Example 104a, (*R)-6-fluoro-8-methyl-7-((4-(methylsulfonyl)phenyl)(pyridin-4-yl)methoxy)chroman-4-one] were 6.54 and 5.41.
Turning to `Cc1c(O[C@H](c2ccncc2)c2ccc(S(C)(=O)=O)cc2)c(F)cc2c1OCCC2=O` (single isomer, unassigned) [Example 104b, (*S)-6-fluoro-8-methyl-7-((4-(methylsulfonyl)phenyl)(pyridin-4-yl)methoxy)chroman-4-one], the pIC50 against HLA-DRB1*0401 was 6.64; in test [1], 5.96.
On the same counts, the results for `Cc1c(O[C@H](c2ccncc2)c2cccc(S(C)(=O)=O)c2)c(F)cc2c1OCCC2=O` (single isomer, unassigned) [Example 105a, (*R)-6-fluoro-8-methyl-7-((3-(methylsulfonyl)phenyl)(pyridin-4-yl)methoxy)chroman-4-one] are 6.70 and below 4.82.
As to `Cc1c(O[C@@H](c2ccncc2)c2cccc(S(C)(=O)=O)c2)c(F)cc2c1OCCC2=O` (single isomer, unassigned) [Example 105b, (*S)-6-fluoro-8-methyl-7-((3-(methylsulfonyl)phenyl)(pyridin-4-yl)methoxy)chroman-4-one], the values for the pIC50 (against HLA-DRB1*0401; in test [1]) were 6.72 and 5.22, respectively.
On the same counts, the results for `Cc1cc([C@H](Oc2ccc3c(c2C(C)C)OCCC3=O)c2ccc(C(N)=O)cc2)cc(C)n1` (single isomer, unassigned) [Example 106a, (*R)-4-((2,6-dimethylpyridin-4-yl)((8-isopropyl-4-oxochroman-7-yl)oxy)methyl)benzamide] are 6.33 and 7.24.
Turning to `Cc1cc([C@@H](Oc2ccc3c(c2C(C)C)OCCC3=O)c2ccc(C(N)=O)cc2)cc(C)n1` (single isomer, unassigned) [Example 106b, (*S)-4-((2,6-dimethylpyridin-4-yl)((8-isopropyl-4-oxochroman-7-yl)oxy)methyl)benzamide], the pIC50 at HLA-DRB1*0401 is 6.13; in test [1], 6.43.
